Measurements: patent publication US11851409B2, “Deuterated benzylaminopyrimidinedione derivatives and use thereof” (QINGDAO JI'AO PHARMACEUTICAL TECHNOLOGY CO., LTD, priority 2019, dated 2023)

Assay: Pharmacokinetic test in SD rats
Assay type: in vivo
Conditions: male, plasma, rat, iv, 1 mg/kg; for Vd: read-out: Vss
Method: Experimental animals: 4 healthy adult male SD rats (purchased from Hunan SJA Laboratory Animal Co., Ltd) were divided into two groups, […].
Drug preparation: a certain amount of the compound of the present disclosure or MYK461 is weighted, and 10% DMSO, 10% Kolliphor HS15 and 80% saline are added to prepare the compound solution with target concentration.
Administration and sample collection: the animals fasted for 12 h before administration, ate in 3 h after administration, and were administered by intravenous administration (IV, 1 mg/kg) through the posterior limb vein of SD rats and orally intragastric administration (PO, 5 mg/kg), respectively. Then, blood samples were collected from the tail vein of rats at time points of 0, 0.083, 0.25, 0.5, 1, 2, 4, 6, 8, and 24 h, respectively, and the blood volume was about 200-400 μL/time point. After collecting whole blood at each time point, the blood samples were placed in K2EDTA anticoagulant test tubes, which were placed in an incubator with ice packs for preservation. All the samples were centrifuged at 4600 r/min at 4° C. for 5 min within 15 min to obtain plasma. The concentrations of different compounds in rat plasma after administration were determined by LC/MS/MS method. Pharmacokinetic parameters were calculated according to the drug concentration-time curve.

Row | AUC(0-inf) [ng·h/mL] | AUC(0-t) [ng·h/mL] | Cmax [ng/mL] | MRT inf [h] | Tmax [min] | clearance [mL/min/kg] | half-life [h] | Vd [L/kg] | Structure (SMILES)
1 | 4670 | 3290 | 643 | 18.8 | 4.98 | 3.57 | 13.9 | 4.03 | [2H]c1ccc([C@H](C)Nc2cc(=O)n(C(C)C)c(=O)[nH]2)cc1 [Example 2, (S)-3-isopropyl-6-((1-(phenyl-4-d)ethyl)amino)pyrimidine-2,4(1H,3H)-dione]
2 | 6830 | 3670 | 883 | 31.1 | 4.98 | 2.44 | 22.6 | 4.56 | [2H]c1c([2H])c([2H])c([C@H](C)Nc2cc(=O)n(C(C)C)c(=O)[nH]2)c([2H])c1[2H] [Example 1, (S)-3-isopropyl-6-((1-(phenyl-d5)ethyl)amino)pyrimidine-2,4(1H,3H)-dione]
3 | 5690 | 4450 | 982 | 14.8 | 4.98 | 2.93 | 11.3 | 2.6 | [2H]C([2H])([2H])C(n1c(=O)cc(N[C@@H](C)c2ccccc2)[nH]c1=O)C([2H])([2H])[2H] [Example 5, (S)-6-((1-phenylethyl)amino)-3-(propane-2-yl-1,1,1,3,3,3-d6)pyrimidine-2,4 (1H,3H)-dione]
4 | 3090 | 2420 | 393 | 15.1 | 4.98 | 5.39 | 11.6 | 4.87 | CC(C)n1c(=O)cc(N[C@@H](C)c2ccccc2)[nH]c1=O [MYK461, reference compound]
